Reference: patent publication US10820591B2, “Substituted sulfonyl amides for controlling animal pests” (Bayer Aktiengesellschaft, priority 2016, dated 2020)

The compounds below were run on Meloidogyne incognita (assay: Meloidogyne incognita test (sand, lettuce, gall formation)). Settings: Meloidogyne incognita, 336 h, 20 ppm, after 14 days; read-out: nematicidal efficacy (formation of galls).
Format: in vivo
Summary of the method: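 Gall counts on lettuce roots were scored after 14 days in sand inoculated with root-knot nematode eggs/larvae plus compound diluted in water. Values run from 0% (galls as in untreated plants) to 100% (gall-free).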

Row | SMILES | pest or weed control at 20 ppm [%]
1 | COc1ccc(Cl)c(S(=O)(=O)NC(=O)c2cn(-c3cc(F)cc(Cl)c3)c(C)n2)c1 [I-321] | 90
2 | Cc1nc(C(=O)NS(=O)(=O)c2c(Cl)cccc2Cl)cn1-c1cc(F)cc(Cl)c1 [I-322] | 100
3 | Cc1nc(C(=O)NS(=O)(=O)c2c(Cl)cccc2Cl)cn1-c1cc(F)cc(F)c1 [I-323] | 100
4 | CCOc1ccc(Cl)c(S(=O)(=O)NC(=O)c2cn(-c3cc(Cl)cc(C(F)(F)F)c3)c(C)n2)c1 [I-324] | 100
5 | Cc1nc(C(=O)NS(=O)(=O)c2c(Cl)cccc2Cl)cn1-c1cc(Cl)cc(C(F)(F)F)c1 [I-325] | 90
6 | Cc1nc(C(=O)NS(=O)(=O)c2ccccc2Cl)cn1-c1cc(Cl)cc(C(F)(F)F)c1 [I-326] | 100
7 | Cc1nc(C(=O)NS(=O)(=O)c2ccccc2Cl)cn1-c1cc(F)cc(Cl)c1 [I-327] | 100
8 | Cc1nc(C(=O)NS(=O)(=O)c2cc(Cl)ccc2Cl)cn1-c1cc(Cl)cc(Cl)c1 [I-328] | 90
9 | Cc1nc(C(=O)NS(=O)(=O)c2cc(Cl)ccc2Cl)cn1-c1cc(F)cc(F)c1 [I-329] | 100
10 | Cc1nc(C(=O)NS(=O)(=O)c2ccccc2Cl)cn1-c1cc(F)cc(F)c1 [I-331] | 100
11 | COc1ccc(Cl)c(S(=O)(=O)NC(=O)c2cn(-c3cc(F)cc(C(F)(F)F)c3)c(C)n2)c1 [I-332] | 100
12 | Cc1nc(C(=O)NS(=O)(=O)c2ccccc2Cl)cn1-c1cc(F)cc(C(F)(F)F)c1 [I-334] | 100
13 | COc1ccc(F)c(S(=O)(=O)NC(=O)c2cn(-c3cc(Cl)cc(C(F)(F)F)c3)cn2)c1 [I-335] | 90
14 | COc1ccc(Br)c(S(=O)(=O)NC(=O)c2cn(-c3cc(Cl)cc(C(F)(F)F)c3)cn2)c1 [I-336] | 100
15 | CCOc1ccc(Cl)c(S(=O)(=O)NC(=O)c2cn(-c3cc(Cl)cc(C(F)(F)F)c3)cn2)c1 [I-337] | 100
16 | COc1ccc(F)c(S(=O)(=O)NC(=O)c2cn(-c3cc(F)cc(Cl)c3)cn2)c1 [I-338] | 100
17 | COc1ccc(Br)c(S(=O)(=O)NC(=O)c2cn(-c3cc(F)cc(Cl)c3)cn2)c1 [I-339] | 100
18 | CCOc1ccc(Cl)c(S(=O)(=O)NC(=O)c2cn(-c3cc(F)cc(Cl)c3)cn2)c1 [I-340] | 100
19 | CC(C)Oc1ccc(Cl)c(S(=O)(=O)NC(=O)c2cn(-c3cc(F)cc(Cl)c3)cn2)c1 [I-341] | 100
20 | Cc1ccc(C)c(S(=O)(=O)NC(=O)c2cn(-c3cc(F)cc(Cl)c3)cn2)c1 [I-342] | 90
21 | O=C(NS(=O)(=O)c1cc(Cn2cccn2)ccc1Cl)c1cn(-c2cc(F)cc(Cl)c2)cn1 [I-343] | 90
22 | CC(C)Oc1ccc(Cl)c(S(=O)(=O)NC(=O)c2cn(-c3cc(Cl)cc(C(F)(F)F)c3)cn2)c1 [I-344] | 90
23 | Cc1ccc(C)c(S(=O)(=O)NC(=O)c2cn(-c3cc(Cl)cc(C(F)(F)F)c3)cn2)c1 [I-345] | 100
24 | COc1ccc(F)c(S(=O)(=O)NC(=O)c2cn(-c3cc(Cl)cc(Cl)c3)cn2)c1 [I-347] | 100
25 | COc1ccc(Br)c(S(=O)(=O)NC(=O)c2cn(-c3cc(Cl)cc(Cl)c3)cn2)c1 [I-348] | 100
26 | CCOc1ccc(Cl)c(S(=O)(=O)NC(=O)c2cn(-c3cc(Cl)cc(Cl)c3)cn2)c1 [I-349] | 100
27 | CC(C)Oc1ccc(Cl)c(S(=O)(=O)NC(=O)c2cn(-c3cc(Cl)cc(Cl)c3)cn2)c1 [I-350] | 100
28 | Cc1ccc(C)c(S(=O)(=O)NC(=O)c2cn(-c3cc(Cl)cc(Cl)c3)cn2)c1 [I-351] | 100
29 | COc1ccc(F)c(S(=O)(=O)NC(=O)c2cn(-c3cc(F)cc(C(F)(F)F)c3)cn2)c1 [I-352] | 100
30 | COc1ccc(Br)c(S(=O)(=O)NC(=O)c2cn(-c3cc(F)cc(C(F)(F)F)c3)cn2)c1 [I-353] | 100
